Common to all, as to assay: NCI-60 cell line screen, 48 h
Test [1] has as its system 786-0.
In test [2] the test system is A498.
Test [3] concerns CAKI-1.
In test [4] the test system is CCRF-CEM.
The subject of test [5] is HCT-15.
Test [6] deals with HT-29.
In test [7] the test system is K562.
Test [8] relates to KM12.
Test [9] has as its system M14.
For test [10], the system named is MOLT-4.
Test [11] concerns NCI-H23.
The test system of test [12] is NCI/ADR-RES.
Test [13] has as its system SF-539.
The test system of test [14] is SN12C.
In test [15] the test system is UO-31.
Test [16] has as its system HOP-92.
Test [17] deals with LOX IMVI.
Test [18] concerns RXF 393.
The subject of test [19] is TK-10.
For test [20], the system named is SR.

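Test compounds were applied to cells in 96-well plates for 48 hours at 5 doses. Abbreviation: GI50, concentration required for 50% inhibition of growth.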 Activity calls are given as the source filed them. Rule as the data show it: active = GI50 up to about 1.1 µM and inactive = higher.

As to `O=[N+]([O-])C(=C1NCCN1)/C(Cl)=C(/Cl)N1CCOCC1`, the GI50 in test [1] is > 100 µM (inactive); in test [2], > 100 µM (inactive); in test [3], > 100 µM (inactive); in test [4], > 100 µM (inactive); in [5], over 100 µM; in test [6] it was > 100 µM (inactive). The GI50 in test [7], in test [8], in test [9], in test [10], in [11] and in test [12] was > 100 µM (inactive) throughout. The GI50 in [13], in [14] and in test [15] was > 100 µM (inactive) throughout.

Take `Cc1ccc(/C=N/Nc2cnccn2)s1`: the GI50 in [1] is > 100 µM (inactive); in test [3] it was > 100 µM (inactive); in test [4] it was > 100 µM (inactive); in test [5], over 100 µM; in test [16], > 100 µM (inactive); in test [6], 47.1 µM (inactive). Also, the GI50 is 65.2 µM (inactive) in test [7]; > 100 µM (inactive) in test [8]; > 100 µM (inactive) in test [17]; > 100 µM (inactive) in test [9]; 65.2 µM (inactive) in test [10]; > 100 µM (inactive) in test [11]. The GI50 in [12] was > 100 µM (inactive); in test [18] it was > 100 µM (inactive); in test [13] it was > 100 µM (inactive); in test [14] it was 42.6 µM (inactive); in test [19], > 100 µM (inactive); in [15] it was > 100 µM (inactive).

Turning to `CCOC(=O)N/N=C(/N)Cc1ccc(Cl)cc1`, the GI50 in [1] is > 100 µM (inactive); in test [4] it was > 100 µM (inactive); in test [5] it was over 100 µM; in test [16], > 100 µM (inactive); in test [6] it was > 100 µM (inactive); in test [7] it was > 100 µM (inactive). Besides, the GI50 in test [8], in [17], in test [9], in test [10], in [11] and in test [12] was > 100 µM (inactive) in each case. For the same compound, the GI50 in [18], in test [13], in [14], in test [19] and in [15] was > 100 µM (inactive) each time.

In the case of `COc1ccc(N2C(=O)CC(Cl)C2=O)cc1` (centres undefined), the GI50 in test [1] was 17.7 µM (inactive); in test [2], > 100 µM (inactive); in test [5] it was 17.5 µM; in test [16], 27.5 µM (inactive); in [6], 17.8 µM (inactive); in test [7], 6.05 µM (inactive). The GI50 in test [17] was 23.3 µM (inactive); in test [9] it was > 100 µM (inactive); in test [11], 23.3 µM (inactive); in [12], 32.4 µM (inactive); in test [18], 20 µM (inactive); in [13], 18.2 µM (inactive). Also, the GI50 in test [14] was 17.5 µM (inactive); in [19], 18.8 µM (inactive); in [15] it was 18.7 µM (inactive).

For the compound `O=S1(=O)c2ccccc2Oc2ccc(C(/C=N/O)=N/O)cc21`, the GI50 in test [1] is 46.1 µM (inactive); in test [3], 16.5 µM (inactive); in test [4] it was 25.8 µM (inactive); in test [5], 41 µM; in test [16], 45.2 µM (inactive); in test [6] it was 63.8 µM (inactive). In addition, the GI50 in test [7] is 30.1 µM (inactive); in test [8] it was 22 µM (inactive); in [17] it was 19.8 µM (inactive); in test [9] it was 37.3 µM (inactive); in [10] it was 27.5 µM (inactive); in [12], 17.4 µM (inactive). Also, the GI50 in test [18] is 15.5 µM (inactive); in test [13] it was 26 µM (inactive); in test [14], 61.9 µM (inactive); in test [19], 0.155 µM (active); in [15], 24 µM (inactive).

With `Clc1nc2n(c1/C=C/c1cccs1)CCS2`, the GI50 in [1] was 20 µM (inactive); in [2] it was 20 µM (inactive); in test [3], 18.8 µM (inactive); in test [4] it was 10.9 µM (inactive); in test [5] it was 37 µM; in test [6] it was 24.3 µM (inactive). Further, the GI50 is 47.2 µM (inactive) in [7]; 37.7 µM (inactive) in [8]; 38.7 µM (inactive) in test [9]; 11.3 µM (inactive) in [10]; 29 µM (inactive) in [11]; 29.6 µM (inactive) in test [12]. Also, the GI50 was 40.8 µM (inactive) in [18], 31.4 µM (inactive) in test [14], 36 µM (inactive) in [19] and 31 µM (inactive) in test [15].

Turning to `CCOP(=O)(Nc1ccc(-c2ccc(N)cc2)cc1)OCC`, the GI50 in test [1] is > 100 µM (inactive); in [2], > 100 µM (inactive); in test [3], > 100 µM (inactive); in test [5], over 100 µM; in [16], > 100 µM (inactive); in test [6], > 100 µM (inactive). Besides, the GI50 in test [7], in [8], in [9], in [10], in [11] and in test [12] was > 100 µM (inactive) throughout. The GI50 in [18] is 35.2 µM (inactive); in test [19], > 100 µM (inactive); in [15] it was > 100 µM (inactive).

Turning to `CC[n+]1c(/C=C/c2ccc(N(CCCl)CCCl)cc2)ccc2cc(I)ccc21`, the GI50 was 1.24 µM (inactive) in [1]; 2.51 µM (inactive) in test [2]; 2 µM (inactive) in test [3]; 0.319 µM (active) in [4]; 6.52 µM in [5]; 0.379 µM (active) in test [16]. Besides, the GI50 in test [6] is 1.84 µM (inactive); in [7] it was 0.335 µM (active); in [8] it was 1.08 µM (active); in test [17], 0.766 µM (active); in test [9], 1.21 µM (inactive); in [10], 0.723 µM (active). Moreover, the GI50 in test [11] was 1.23 µM (inactive); in test [18], 0.839 µM (active); in test [13], 0.979 µM (active); in test [14], 1.28 µM (inactive); in test [20] it was 0.659 µM (active); in [19], 2.05 µM (inactive). The GI50 in test [15] is 5.93 µM (inactive).

As to `ClCCCN1CCCCC1CCl` (centres undefined), the GI50 in [1] is 72.1 µM (inactive); in [2] it was > 100 µM (inactive); in [3], 26.7 µM (inactive); in [4] it was 20.9 µM (inactive); in test [5] it was over 100 µM; in test [16], > 100 µM (inactive). The GI50 in test [6] is > 100 µM (inactive); in test [7] it was > 100 µM (inactive); in test [8], > 100 µM (inactive); in test [17], > 100 µM (inactive); in test [9], > 100 µM (inactive); in test [10], 39.4 µM (inactive). In addition, the GI50 is 65.3 µM (inactive) in [11]; > 100 µM (inactive) in test [18]; > 100 µM (inactive) in [13]; > 100 µM (inactive) in test [14]; 24.8 µM (inactive) in [20]; > 100 µM (inactive) in test [19]. For the same compound, the GI50 in test [15] is 92.7 µM (inactive).

As to `O=C1Oc2cc3c(c4cccc1c24)OCN(c1ccc(Cl)cc1)C3`, the GI50 in test [1] is 14.3 µM (inactive); in test [2] it was > 100 µM (inactive); in test [3] it was 38.8 µM (inactive); in [4], 9.23 µM (inactive); in test [5] it was 2.97 µM; in test [16], 20.5 µM (inactive). Besides, the GI50 was 11.4 µM (inactive) in [6]; 0.923 µM (active) in test [7]; > 44.5 µM (inactive) in test [8]; 0.176 µM (active) in test [17]; 6.97 µM (inactive) in test [9]; 7 µM (inactive) in [10]. Besides, the GI50 in test [11] was 18.8 µM (inactive); in test [18], > 52.7 µM (inactive); in test [13] it was 4.46 µM (inactive); in test [14], 13.6 µM (inactive); in [20] it was 8.79 µM (inactive); in [19], > 100 µM (inactive). The GI50 in test [15] is 3.03 µM (inactive).

Turning to `CCSC1=C(C)N(/C=N/C(C)(C)C)CC1`, the GI50 in test [1] was > 100 µM (inactive); in [2] it was > 100 µM (inactive); in [3], > 100 µM (inactive); in test [4] it was > 100 µM (inactive); in [5], over 100 µM; in test [16] it was > 100 µM (inactive). Moreover, the GI50 is > 100 µM (inactive) in [6]; > 100 µM (inactive) in [7]; > 100 µM (inactive) in test [8]; 89.1 µM (inactive) in test [17]; > 100 µM (inactive) in [9]; > 100 µM (inactive) in [10]. For the same compound, the GI50 in test [11], in test [18], in test [13], in [14], in [20] and in [19] was > 100 µM (inactive) in each case. Also, the GI50 in [15] was > 100 µM (inactive).

`O=C(O)c1ccc(N/C(=C(/C(Cl)=C(Cl)Cl)[N+](=O)[O-])n2nnc3ccccc32)cc1`: the GI50 was > 100 µM (inactive) in [1]; > 100 µM (inactive) in test [2]; > 100 µM (inactive) in test [3]; > 100 µM (inactive) in test [4]; over 100 µM in test [5]; > 100 µM (inactive) in [6]. In addition, the GI50 in [7], in test [8], in test [9], in [10], in [11] and in test [12] was > 100 µM (inactive) in each case. Besides, the GI50 in [13], in [14] and in [15] was > 100 µM (inactive) in each case.
